Measurements published in ChEMBL document CHEMBL1201862, “PubChem BioAssay data set” (2004).
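All cell lines were grown in 96-well plates and treated with compound for 48 hours. At the GI50, growth is halved.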 Calls of active or inactive are those of the source. Rule as the data show it: active = GI50 up to about 1.1 µM and inactive = higher.

Assays:
Experiment in all cases: NCI-60 cell line screen, 48 h
[1] = test system: EKVX
[2] = test system: NCI/ADR-RES
[3] = test system: K562
[4] = test system: SK-MEL-28
[5] = test system: NCI-H226
[6] = test system: OVCAR-5
[7] = test system: SF-268
[8] = test system: SF-539
[9] = test system: Malme-3M
[10] = test system: MDA-MB-435
[11] = test system: NCI-H23
[12] = test system: A549
[13] = test system: A498
[14] = test system: HCT-116
[15] = test system: 786-0
[16] = test system: CAKI-1
[17] = test system: IGROV-1
[18] = test system: RXF 393
[19] = test system: SNB-19
[20] = test system: T47D

SMILES: Cc1ccc(C(=O)Nc2ccc(CP(=O)(O)O)cc2CP(=O)(O)O)cc1N
- GI50 [1]: > 100 µM (inactive)
- GI50 [2]: > 100 µM (inactive)
- GI50 [3]: > 100 µM (inactive)
- GI50 [4]: > 100 µM (inactive)
- GI50 [5]: > 100 µM (inactive)
- GI50 [6]: > 100 µM (inactive)
- GI50 [7]: > 100 µM (inactive)
- GI50 [8]: > 100 µM (inactive)
- GI50 [9]: > 100 µM (inactive)
- GI50 [10]: > 100 µM (inactive)
- GI50 [11]: > 100 µM (inactive)
- GI50 [12]: > 100 µM (inactive)
- GI50 [13]: > 100 µM (inactive)
- GI50 [14]: > 100 µM (inactive)
- GI50 [15]: > 100 µM (inactive)
- GI50 [16]: > 100 µM (inactive)
- GI50 [17]: > 100 µM (inactive)
- GI50 [18]: > 100 µM (inactive)
- GI50 [19]: > 100 µM (inactive)
- GI50 [20]: > 100 µM (inactive)

SMILES: Nc1nc(N)nc(-c2cnccn2)n1
- GI50 [1]: > 100 µM (inactive)
- GI50 [2]: > 100 µM (inactive)
- GI50 [3]: > 100 µM (inactive)
- GI50 [4]: > 100 µM (inactive)
- GI50 [5]: > 100 µM (inactive)
- GI50 [6]: 57.1 µM (inactive)
- GI50 [7]: > 100 µM (inactive)
- GI50 [8]: > 100 µM (inactive)
- GI50 [9]: > 100 µM (inactive)
- GI50 [10]: > 100 µM (inactive)
- GI50 [11]: > 100 µM (inactive)
- GI50 [12]: > 100 µM (inactive)
- GI50 [13]: > 100 µM (inactive)
- GI50 [14]: > 100 µM (inactive)
- GI50 [15]: > 100 µM (inactive)
- GI50 [16]: > 100 µM (inactive)
- GI50 [17]: > 100 µM (inactive)
- GI50 [18]: > 100 µM (inactive)
- GI50 [19]: > 100 µM (inactive)
- GI50 [20]: > 100 µM (inactive)

SMILES: COc1ccc(C(C)NNC(=O)c2cc[n+]([BH2-]C#N)cc2)cc1OC (stereo not given)
- GI50 [1]: > 100 µM (inactive)
- GI50 [2]: > 100 µM (inactive)
- GI50 [3]: > 100 µM (inactive)
- GI50 [4]: > 100 µM (inactive)
- GI50 [5]: > 100 µM (inactive)
- GI50 [6]: > 100 µM (inactive)
- GI50 [7]: > 100 µM (inactive)
- GI50 [8]: > 100 µM (inactive)
- GI50 [9]: > 100 µM (inactive)
- GI50 [10]: > 100 µM (inactive)
- GI50 [11]: > 100 µM (inactive)
- GI50 [12]: > 100 µM (inactive)
- GI50 [13]: > 100 µM (inactive)
- GI50 [14]: > 100 µM (inactive)
- GI50 [15]: > 100 µM (inactive)
- GI50 [16]: > 100 µM (inactive)
- GI50 [17]: > 100 µM (inactive)
- GI50 [18]: > 100 µM (inactive)
- GI50 [19]: > 100 µM (inactive)
- GI50 [20]: > 100 µM (inactive)

SMILES: Nc1cc2[nH]cnc2c(=O)[nH]1 [DEZAGUANINE]
- GI50 [1]: 56.2 µM (inactive)
- GI50 [2]: 50.9 µM (inactive)
- GI50 [3]: 12.3 µM (inactive)
- GI50 [4]: 40.6 µM (inactive)
- GI50 [5]: 77.1 µM (inactive)
- GI50 [6]: 45.5 µM (inactive)
- GI50 [7]: 15 µM (inactive)
- GI50 [8]: 16 µM (inactive)
- GI50 [9]: 47.6 µM (inactive)
- GI50 [10]: 14.3 µM (inactive)
- GI50 [11]: 31.6 µM (inactive)
- GI50 [12]: 24.5 µM (inactive)
- GI50 [13]: 63.5 µM (inactive)
- GI50 [14]: 16.6 µM (inactive)
- GI50 [15]: 19.4 µM (inactive)
- GI50 [16]: 11 µM (inactive)
- GI50 [17]: 23.1 µM (inactive)
- GI50 [18]: 41.7 µM (inactive)
- GI50 [19]: > 264 µM (inactive)
- GI50 [20]: 89.1 µM (inactive)

SMILES: COc1cccc([C@H]2C/C(=N\NC(=O)C(=O)N[C@@H](C)c3ccccc3)c3ccccc3N2)c1
- GI50 [1]: 0.0927 µM (active)
- GI50 [2]: 7.05 µM (inactive)
- GI50 [3]: < 0.01 µM (active)
- GI50 [4]: 0.0673 µM (active)
- GI50 [5]: 0.0314 µM (active)
- GI50 [6]: 16.8 µM (inactive)
- GI50 [7]: 7.05 µM (inactive)
- GI50 [8]: 7.82 µM (inactive)
- GI50 [9]: > 10 µM (inactive)
- GI50 [10]: < 0.01 µM (active)
- GI50 [11]: > 10 µM (inactive)
- GI50 [12]: 6.15 µM (inactive)
- GI50 [13]: 0.0417 µM (active)
- GI50 [14]: 0.0209 µM (active)
- GI50 [15]: 0.0374 µM (active)
- GI50 [16]: 0.0354 µM (active)
- GI50 [17]: > 10 µM (inactive)
- GI50 [18]: 5.5 µM (inactive)
- GI50 [19]: 6.52 µM (inactive)
- GI50 [20]: > 10 µM (inactive)

SMILES: O[C@H]1[C@H](O)[C@@H](Cn2nnc(-c3ccccc3)c2-c2ccccc2)OCO[C@@H]1Cn1nnc(-c2ccccc2)c1-c1ccccc1
- GI50 [1]: 6.47 µM (inactive)
- GI50 [2]: 7.24 µM (inactive)
- GI50 [3]: 4.01 µM (inactive)
- GI50 [4]: 6.18 µM (inactive)
- GI50 [5]: 5.9 µM (inactive)
- GI50 [6]: 2.58 µM (inactive)
- GI50 [7]: 4.85 µM (inactive)
- GI50 [8]: 3.16 µM (inactive)
- GI50 [9]: 9.42 µM (inactive)
- GI50 [10]: 5.04 µM (inactive)
- GI50 [11]: 5.92 µM (inactive)
- GI50 [12]: 3.74 µM (inactive)
- GI50 [13]: 6.47 µM (inactive)
- GI50 [14]: 3.11 µM (inactive)
- GI50 [15]: 2.88 µM (inactive)
- GI50 [16]: 5.73 µM (inactive)
- GI50 [17]: 3.65 µM (inactive)
- GI50 [18]: 2.97 µM (inactive)
- GI50 [19]: 8.89 µM (inactive)
- GI50 [20]: 7.98 µM (inactive)

SMILES: O=c1c2ccccc2nc(N/N=C/c2ccc(Cl)cc2)n1-c1ccccc1
- GI50 [1]: > 100 µM (inactive)
- GI50 [2]: > 100 µM (inactive)
- GI50 [3]: > 100 µM (inactive)
- GI50 [4]: > 100 µM (inactive)
- GI50 [5]: > 100 µM (inactive)
- GI50 [6]: > 100 µM (inactive)
- GI50 [7]: 80.2 µM (inactive)
- GI50 [8]: 97.3 µM (inactive)
- GI50 [9]: > 100 µM (inactive)
- GI50 [10]: > 100 µM (inactive)
- GI50 [11]: > 100 µM (inactive)
- GI50 [12]: > 100 µM (inactive)
- GI50 [13]: > 100 µM (inactive)
- GI50 [14]: > 100 µM (inactive)
- GI50 [15]: > 100 µM (inactive)
- GI50 [16]: > 100 µM (inactive)
- GI50 [17]: > 100 µM (inactive)
- GI50 [18]: 87.1 µM (inactive)
- GI50 [19]: 36.5 µM (inactive)
- GI50 [20]: 82.6 µM (inactive)
